Experimental data as given in patent US8940756B2, “Dihydronaphthyridines and related compounds useful as kinase inhibitors for the treatment of proliferative diseases” (Deciphera Pharmaceuticals, Inc., priority 2012, dated 2015).

Legend:
[1] = target: Phospho-KIT (Tyr719) in GIST430 cells (Homo sapiens, UniProt P10721); assay: GIST430 KIT Western Blot; assay type: cell-based; conditions: 4 hours, read-out: pKIT suppression by western blot analysi GIST430
[2] = target: Phospho-KIT (Tyr719) in GIST48 cells (Homo sapiens, UniProt P10721); assay: GIST48 KIT Western Blot; assay type: cell-based; conditions: 4 hours, read-out: pKIT suppression by western blot analysi GIST48
GIST430 cells = assay: GIST 430 Cell Proliferation Assay; assay type: cell-based; conditions: Homo sapiens, resazurin, 115 hours + 5 hours
Protocol: (§1) GIST48, GIST430, and GIST882 cells were obtained from J. Fletcher (Brigham and Women's Hospital, Boston, Mass.). GIST T1 cells were obtained from B. Rubin (Cleveland Clinic, Cleveland, Ohio) and Professor Takahiro Taguchi (Kochi Medical School, Nankoku, Kochi, Japan). Briefly, GIST48 and GIST 882 cells were grown in RPMI 1640 medium supplemented with 15% characterized fetal bovine serum (Invitrogen, Carlsbad, Calif.), 1 unit/mL penicillin G, 1 μg/ml streptomycin, and 0.29 mg/mL L-glutamine at 37° C., 5% CO2, and 95% humidity. GIST430 cells were grown in Ham's F10 medium supplemented with 15% characterized fetal bovine serum (Invitrogen, Carlsbad, Calif.), 30 mg/L bovine pituitary extract (BD Biosciences, San Jose, Calif.), 0.5% Mito+ serum extender (BD Biosciences, San Jose, Calif.), 1 unit/mL penicillin G, 1 μg/ml streptomycin, and 0.29 mg/mL L-glutamine at 37° C., 5% CO2, 95% humidity. GIST T1 cells were grown in DMEM medium supplemented with 10% characterized fetal bovine serum (Invitrogen, Carlsbad, Calif.), 1 unit/mL penicillin G, 1 ng/ml streptomycin, and 0.29 mg/mL L-glutamine at 37° C., 5% CO2, and 95% humidity.
A serial dilution of test compound was dispensed into a 384-well black clear bottom plate (Corning, Corning, N.Y.). Two thousand five-hundred cells were added per well in 50 μL complete growth medium. Plates were incubated for 115 hours at 37° C., 5% CO2, 95% humidity. At the end of the incubation period 10 μL of a 440 μM solution of resazurin (Sigma, St. Louis, Mo.) in PBS was added to each well and incubated for an additional 5 hours at 37° C., 5% CO2, 95% humidity. Plates were read on a Synergy2 reader (Biotek, Winooski, Vt.) using an excitation of 540 nm and an emission of 600 nm.

[3] = target: T1, c-KIT T670I kinase (Seq ID no. 6) (Homo sapiens, UniProt P10721, T670I); assay: c-KIT T670I Kinase Assay; assay type: biochemical; conditions: enzymatic assay, ATP 200 uM
T1 construct: GST (N); TEV cleavage site (N); purchased deCODE Biostructures
Protocol: (§2) In this assay, the oxidation of NADH (measured by decrease in absorbance at 340 nm) was continuously monitored spectrophotometrically. […] The inhibition reaction was started by mixing serial diluted test compound with the above reaction mixture. The absorption at 340 nm was monitored continuously for 5 hours at 30° C. on Synergy 2 plate reader (BioTech). […] The protein construct was prepared by deCODE Biostructures using procedures known in the art. The construct contains […] of cKit, an N-terminal tag, a GST-fusion sequence and a TEV cleavage site. This construct is identical to Seq ID no.

GIST T1 cells = assay: GIST T1 Cell Proliferation Assay; assay type: cell-based; conditions: Homo sapiens, GISTT1, 72 h, resazurin, 68 hours + 4 hours
Protocol: as §1
A serial dilution of test compound was dispensed into a 384-well black clear bottom plate (Corning, Corning, N.Y.). […] Plates were read on a Synergy2 reader (Biotek, Winooski, Vt.) using an excitation of 540 nm and an emission of 600 nm.

[4] = target: T2, c-KIT kinase (Seq ID no. 1) (Homo sapiens, UniProt P10721); assay: c-KIT Kinase Assay (pyruvate kinase/lactate dehydrogenase coupled); assay type: biochemical; conditions: enzymatic assay, ATP 200 μM; read-out: KIT (wt)
T2 construct: GST (N); TEV cleavage site (N); purchased deCODE Biostructures
Protocol: In this assay, the oxidation of NADH (measured by decrease in absorbance at 340 nm) was continuously monitored spectrophotometrically. […] The absorption at 340 nm was monitored continuously for 2 hours at 30° C. on Synergy 2 (BioTeK). The reaction rate was calculated using the 0 to 1 h time frame. Percent inhibition was obtained by comparison of reaction rate with that of a control (i.e. with no test compound). IC50 values were calculated from a series of percent inhibition values determined at a range of inhibitor concentrations using software routines as implemented in the GraphPad Prism software package. The protein construct was prepared by deCODE Biostructures using procedures known in the art. The construct contains […] of cKit, an N-terminal tag, a GST-fusion sequence and a TEV cleavage site.

[5] = target: T3, c-KIT D816H kinase (Seq ID no. 3) (Homo sapiens, UniProt P10721, D816H); assay: c-KIT D816H Kinase Assay; assay type: biochemical; conditions: enzymatic assay, ATP 200 μM
T3 construct: GST (N); TEV cleavage site (N); purchased deCODE Biostructures
Protocol: as §2, with “6” for “5”, “no. 1 except for the D816H mutation.” for “no.”

[6] = target: T4, c-KIT D816V kinase (Seq ID no. 4) (Homo sapiens, UniProt P10721, D816V); assay: c-KIT D816V kinase Assay; assay type: biochemical; conditions: enzymatic assay, ATP 200 uM
T4 construct: D816V c-KIT (residues T544-V976 with N-terminal GST fusion, 16 nM); purchased deCODE Biostructures
Protocol: (§3) In this assay, the oxidation of NADH (measured by decrease in absorbance at 340 nm) was continuously monitored spectrophotometrically. […] The inhibition reaction was started by mixing serial diluted test compound with the above reaction mixture. The absorption at 340 nm was monitored continuously for 5 hours at 30° C. on Synergy 2 plate reader (BioTech).
The protein construct was prepared by deCODE Biostructures using procedures known in the art. The construct contains residues T544-V976 of cKit, an N-terminal tag, a GST-fusion sequence and a TEV cleavage site. This construct is identical to Seq ID no. 1 except for the D816V mutation.

[7] = target: T5, c-KIT V654A kinase (Seq ID no. 2) (Homo sapiens, UniProt P10721, V654A); assay: c-KIT V654A Kinase Assay; assay type: biochemical; conditions: enzymatic assay, ATP 200 μM
T5 construct: V654A c-Kit (residues T544-V976 with N-terminal GST fusion, 47 nM); purchased deCODE Biostructures
Protocol: as §3, with “6” for “5”
The protein construct was prepared by deCODE Biostructures using procedures known in the art. The construct contains residues T544-V976 of cKit, an N-terminal tag, a GST-fusion sequence and a TEV cleavage site. This construct is identical to Seq ID no.

Phospho-KIT (Tyr719) in GIST430 cells, sequence (P10721 with tags, fused parts or gaps DEL560-576/V654A, form open): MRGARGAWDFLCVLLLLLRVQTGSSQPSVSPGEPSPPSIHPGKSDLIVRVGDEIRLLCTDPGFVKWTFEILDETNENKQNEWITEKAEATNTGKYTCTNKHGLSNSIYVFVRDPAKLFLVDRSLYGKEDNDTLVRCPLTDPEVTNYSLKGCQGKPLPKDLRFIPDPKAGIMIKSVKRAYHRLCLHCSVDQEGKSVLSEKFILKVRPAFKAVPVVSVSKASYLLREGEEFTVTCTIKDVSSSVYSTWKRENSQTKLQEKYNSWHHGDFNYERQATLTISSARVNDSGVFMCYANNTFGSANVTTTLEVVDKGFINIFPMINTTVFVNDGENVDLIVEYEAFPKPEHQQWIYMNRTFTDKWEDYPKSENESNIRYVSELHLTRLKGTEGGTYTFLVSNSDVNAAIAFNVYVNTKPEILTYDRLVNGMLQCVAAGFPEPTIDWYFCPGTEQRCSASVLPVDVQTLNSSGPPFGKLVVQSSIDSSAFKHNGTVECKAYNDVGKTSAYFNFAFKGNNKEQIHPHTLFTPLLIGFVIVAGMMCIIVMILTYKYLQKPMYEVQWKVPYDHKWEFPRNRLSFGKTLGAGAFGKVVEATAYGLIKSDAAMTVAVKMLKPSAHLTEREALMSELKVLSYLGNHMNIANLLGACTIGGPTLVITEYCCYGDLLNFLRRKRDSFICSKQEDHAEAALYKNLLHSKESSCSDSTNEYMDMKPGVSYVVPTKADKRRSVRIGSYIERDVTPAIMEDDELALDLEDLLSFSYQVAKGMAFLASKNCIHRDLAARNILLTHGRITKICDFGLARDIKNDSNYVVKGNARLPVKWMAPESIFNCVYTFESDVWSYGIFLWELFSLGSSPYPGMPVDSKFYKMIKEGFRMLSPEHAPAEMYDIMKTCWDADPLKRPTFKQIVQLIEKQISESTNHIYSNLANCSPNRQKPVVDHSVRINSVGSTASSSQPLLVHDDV
T1 sequence (P10721 544-976 T670I): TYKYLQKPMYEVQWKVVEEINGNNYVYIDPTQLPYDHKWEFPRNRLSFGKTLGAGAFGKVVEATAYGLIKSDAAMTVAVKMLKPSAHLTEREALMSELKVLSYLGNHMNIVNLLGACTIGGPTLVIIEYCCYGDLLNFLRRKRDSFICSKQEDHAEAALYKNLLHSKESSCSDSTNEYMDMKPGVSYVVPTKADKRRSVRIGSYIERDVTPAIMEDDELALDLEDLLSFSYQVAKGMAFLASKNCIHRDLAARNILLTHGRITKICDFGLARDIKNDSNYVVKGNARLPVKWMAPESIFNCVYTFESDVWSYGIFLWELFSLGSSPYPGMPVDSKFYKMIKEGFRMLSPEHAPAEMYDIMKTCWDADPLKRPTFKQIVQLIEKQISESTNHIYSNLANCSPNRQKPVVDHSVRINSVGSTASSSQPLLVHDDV
T2 sequence (P10721 with tags, fused parts or gaps): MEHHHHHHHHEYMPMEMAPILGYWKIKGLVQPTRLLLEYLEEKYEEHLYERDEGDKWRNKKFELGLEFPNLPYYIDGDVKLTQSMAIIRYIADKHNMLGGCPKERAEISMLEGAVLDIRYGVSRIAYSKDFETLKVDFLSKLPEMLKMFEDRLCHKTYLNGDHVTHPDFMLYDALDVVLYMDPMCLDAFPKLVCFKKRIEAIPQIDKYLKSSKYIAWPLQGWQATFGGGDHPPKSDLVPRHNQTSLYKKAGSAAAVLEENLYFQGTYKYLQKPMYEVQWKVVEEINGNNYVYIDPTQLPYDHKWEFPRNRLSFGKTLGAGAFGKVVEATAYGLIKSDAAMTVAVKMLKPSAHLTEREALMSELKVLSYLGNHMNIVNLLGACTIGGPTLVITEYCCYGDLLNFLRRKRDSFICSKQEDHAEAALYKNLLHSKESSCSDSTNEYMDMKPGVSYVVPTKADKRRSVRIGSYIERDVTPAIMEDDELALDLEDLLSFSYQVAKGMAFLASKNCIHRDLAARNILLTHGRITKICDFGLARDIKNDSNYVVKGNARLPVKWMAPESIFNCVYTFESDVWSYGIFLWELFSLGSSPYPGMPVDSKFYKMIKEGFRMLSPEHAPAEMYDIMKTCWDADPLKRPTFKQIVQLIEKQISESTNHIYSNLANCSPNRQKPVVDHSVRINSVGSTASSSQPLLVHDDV
T4 sequence (P10721 544-976 D816V): as the sequence (P10721 544-976 T670I) above, with I127T, D273V counted along it
T5 sequence (P10721 544-976 V654A): as the sequence (P10721 544-976 T670I) above, with V111A, I127T counted along it
T3 sequence (P10721 544-976 D816H): as the sequence (P10721 544-976 T670I) above, with I127T, D273H counted along it
Phospho-KIT (Tyr719) in GIST48 cells, sequence (P10721 whole entry V560D/D820A, form open): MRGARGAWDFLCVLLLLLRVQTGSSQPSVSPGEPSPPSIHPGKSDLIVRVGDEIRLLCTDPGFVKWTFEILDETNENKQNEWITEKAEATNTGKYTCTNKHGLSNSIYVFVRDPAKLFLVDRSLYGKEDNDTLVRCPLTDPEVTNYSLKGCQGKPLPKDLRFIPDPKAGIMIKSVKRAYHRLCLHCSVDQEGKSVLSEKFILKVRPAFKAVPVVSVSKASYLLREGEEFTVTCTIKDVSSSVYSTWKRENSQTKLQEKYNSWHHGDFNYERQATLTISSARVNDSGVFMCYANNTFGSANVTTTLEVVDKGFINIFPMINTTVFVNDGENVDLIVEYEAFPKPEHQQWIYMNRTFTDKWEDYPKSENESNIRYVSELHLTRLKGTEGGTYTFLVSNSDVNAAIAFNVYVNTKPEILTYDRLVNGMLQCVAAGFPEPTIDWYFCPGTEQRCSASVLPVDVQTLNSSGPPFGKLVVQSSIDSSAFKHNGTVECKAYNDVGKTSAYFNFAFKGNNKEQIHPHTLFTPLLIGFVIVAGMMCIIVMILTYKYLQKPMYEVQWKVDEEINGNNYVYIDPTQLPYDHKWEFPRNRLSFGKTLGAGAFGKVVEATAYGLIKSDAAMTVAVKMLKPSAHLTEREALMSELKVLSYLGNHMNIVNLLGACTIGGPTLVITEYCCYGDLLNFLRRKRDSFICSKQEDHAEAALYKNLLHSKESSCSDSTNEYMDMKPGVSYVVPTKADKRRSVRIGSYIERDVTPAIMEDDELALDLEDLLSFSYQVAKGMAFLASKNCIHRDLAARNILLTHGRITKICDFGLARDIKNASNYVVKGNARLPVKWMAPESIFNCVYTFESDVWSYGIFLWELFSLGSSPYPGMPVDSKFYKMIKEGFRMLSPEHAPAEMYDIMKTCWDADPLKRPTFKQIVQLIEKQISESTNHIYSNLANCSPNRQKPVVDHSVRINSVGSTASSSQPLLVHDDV

| IC50 [1] [nM] | IC50 [2] [nM] | IC50 [3] [nM] | IC50 [4] [nM] | IC50 [5] [nM] | IC50 [6] [nM] | IC50 [7] [nM] | SMILES | IC50 (GIST430 cells) [nM] | IC50 (GIST T1 cells) [nM] |
| --- | --- | --- | --- | --- | --- | --- | --- | --- | --- |
| 10 to 100 | > 1000 |  |  |  |  |  | CCn1c(=O)c(-c2cc(NC(=O)Nc3ccccc3F)c(F)cc2C)cc2cnc(NC)cc21 [Example 38, 1-(5-(1-ethyl-7-(methylamino)-2-oxo-1,2-dihydro-1,6-naphthyridin-3-yl)-2-fluoro-4-methylphenyl)-3-(2-fluorophenyl)urea] | 10 to 100 |  |
|  |  | 10 to 100 | < 10 | 10 to 100 | 10 to 100 | < 10 | CCn1c(=O)c(-c2cc(NC(=O)Nc3ccccc3)c(F)cc2Cl)cc2cnc(NCCCN3CCOCC3)cc21 [Example 92, 1-(4-chloro-5-(1-ethyl-7-((3-morpholinopropyl)amino)-2-oxo-1,2-dihydro-1,6-naphthyridin-3-yl)-2-fluorophenyl)-3-phenylurea] |  | ≤ 10 |
